“Also recorded” adds a separate entry of the source.
How the values were obtained:
[1] = tested on: IL-1β production by human PBMCs; test: IL-1β production by human PBMCs stimulated with PRR ligands with or without caspase-1 inhibitor (ELISA); type: cell-based; conditions: 24 h stimulation, 50 healthy donors
[2] = tested on: IL-1β production of PBMCs from gout patients; conditions: MSU or C16.0 alone; cited from earlier work

Compound | induction of IL-1β production by human PBMCs [1] | release of IL-1β by the single component alone [2]
Pam3cys | strong inducers | 
CCCCCCCCCCCCCCCC(=O)O [C16.0, Palmitic acid] |  | neither does
Flagellin | weak inducer | 
CC(=O)N[C@H]1C(O)O[C@H](CO)[C@@H](O)[C@@H]1O[C@H](C)C(=O)N[C@@H](C)C(=O)N[C@H](CCC(=O)O)C(N)=O (mixture of isomers) [MDP, Muramyl dipeptide] | strong inducers; also recorded: weak inducer | 
